Measured values from US7230033B2, “Pest control compositions and methods for their use” (United States of America as represented by the Secretary of …, priority 2000, dated 2007).

Key:
[1] = test system: Ae. aegypti adults; assay: Adult mosquito bottle bioassay; assay type: in vivo, Aedes aegypti; conditions: for LC50 / Slope / LC90: 24 h exposure; for LC50 / LC90: NE = not effective at concentrations tested; for Slope: probit
Experimental: (§1) Adult mosquitoes were tested using the bottle bioassay method of Brogden and McAllister (J. Am. Mosq. Control Assoc., 14:159–64, 1998) with minor modifications. Natural product extracts were two-fold serially diluted for a total of 8 concentrations ranging from 0.002% to 0.25% in 1.5 ml of acetone. Individual dilutions were added to 250 ml Wheaton glass bottles and capped. Bottles were manipulated to evenly coat all inner surfaces. The caps were removed and bottles were allowed to air-dry overnight. Once bottles were completely dry, 10–50 (in some tests 25–50) adult mosquitoes were aspirated into the bottles. Mosquitoes were held in the bottles for 24 h at 23° C. and 85% RH. Morbidity and mortality were recorded at 15, 30, 45, and 60 min and 24 hour intervals. One bottle for each replicate was treated with acetone only and served as a control. The dose-mortality data was evaluated with probit analysis, using the LdP Line software, to determine LC50 and LC90 values.
Carvacrol was combined with compound 7, 9, or 10 at a 1:1 ratio (7.5 μl of carvacrol:7.5 μl of compound 7, 9, or 10 was added to 2,985 μl of acetone for a 0.5% solution, from which serial dilutions were made), and tested as previously described against nymphal ticks and adult and larval mosquitoes.

[2] = test system: Aedes aegypti adults; assay: Residual activity, aged treated bottles, mosquitoes; assay type: in vivo
Experimental: as §1

[3] = test system: nymphal Ixodes scapularis; assay: Treated-vial biocidal screening with 2% acetone solutions (Example 2), tick nymphs; assay type: in vivo; conditions: treated vials sat 72 h; arthropods added for the final 24 h
Experimental: (§2) Samples of the compounds listed below were obtained as described in Example 1, and screened for biocidal activities against nymphal Ixodes scapularis. In this example, 2% acetone solutions (wt/vol) of the compounds were applied to inner surfaces of 2-dram friction cap vials. Vials and caps were treated then allowed to dry for a minimum of 4 hours before placing 10 nymphs in each container. These same vials were used to challenge additional nymphs and adult I. scapularis ticks and adult Xenopsylla cheopis fleas through five weeks to observe any possible residual activity.
(§3) Numbers in parentheses refer to length of treatment in terms of hours (h) or weeks (wk). Data is presented in terms of number killed/number tested. For test periods longer than 24 hours, the treated vials were allowed to sit for the stated period after drying (72 h, 4 wk, or 5 wk) and each group of arthropods was added to the vials for the final 24 h of the test period.

[4] = test system: X. cheopis adults; assay: Flea bioassay, treated 2-dram vials, probit analysis; assay type: in vivo, Xenopsylla cheopis; conditions: 24 h exposure; for Slope: probit
Experimental: Med. […] A control treated with acetone only was run with each series. Tick and flea susceptibility was evaluated using a modification of the disposable pipette method of Barnard et al. (J. Econ. Entomol., 74:466-69, 1981) and Maupin and […]. Med. […] The inner surface of 2-dram friction cap vials were treated with the compound/acetone solution, or acetone only as a control, and left to air-dry overnight (see also, […] et al., J. Med. […] Three to 4 holes were made in the plastic cap to allow for air exchange. Nymphal ticks and adult fleas were then placed directly into the vials using forceps. […] For each time point, if ticks and fleas were incapable of movement, maintaining normal posture, leg coordination, ability to right themselves, or any signs of life, they were considered moribund or dead.

[5] = test system: adult I. scapularis ticks; assay: Treated-vial biocidal screening with 2% acetone solutions (Example 2), adult ticks, residual; assay type: in vivo, Ixodes scapularis; conditions: treated vials sat 4 wk; arthropods added for the final 24 h
Experimental: as §2, §3

[6] = test system: Ixodes scapularis nymphs; assay: Residual activity, aged treated vials, ticks; assay type: in vivo; conditions: for LC90, residual activity: NE = not effective
Experimental: (§4) Briefly, groups of 10 nymphal I. scapularis and X. cheopis fleas were used in all tests (more than a total of 5,240 nymphs and 4,860 fleas were exposed to the compounds). The inner surface of 2-dram friction cap vials were treated with the compound/acetone solution, or acetone only as a control, and left to air-dry overnight (see also, Panella et al., J. Med. Entomol., 42(3):352-358, 2005. Three to 4 holes were made in the plastic cap to allow for air exchange. Nymphal ticks and adult fleas were then placed directly into the vials using forceps. Vials containing ticks or fleas were placed in desiccators for 24 h at 21° C. and 90% RH. Morbidity and mortality was recorded at 1, 2, 4, 8, and 24 h after initial exposure.

[7] = test system: ticks, fleas, and mosquitoes; assay: Residual activity, general statements (Examples 9, 17); assay type: in vivo; conditions: ticks
[8] = test system: I. scapularis nymphs; assay: Tick bioassay, treated 2-dram vials, probit analysis; assay type: in vivo, Ixodes scapularis; conditions: for LC50 / LC90 / Slope: 24 h exposure; for LC50 / LC90: NE = not effective at concentrations tested; for Slope: probit
From the text: A control treated with acetone only was run with each series.
For each time point, if ticks and fleas were incapable of movement, maintaining normal posture, leg coordination, ability to right themselves, or any signs of life, they were considered moribund or dead.

[9] = test system: adult Xenopsylla cheopis fleas; assay: Treated-vial biocidal screening with 2% acetone solutions (Example 2), adult fleas, residual; assay type: in vivo; conditions: treated vials sat 5 wk; arthropods added for the final 24 h
Experimental: as §2, §3

[10] = test system: ticks, fleas, and mosquitoes; assay: Pesticidal activity against all three arthropods, general statements (Examples 9, 17); assay type: in vivo; conditions: 24 hours exposure; initial screenings
Experimental: Concentrations of the compounds were prepared by 2-fold serial dilutions of a 0.5% (wt:vol) solution of the extracts in acetone (see, e.g., Panella et al., J. Med. Entomol., 42(3):352-358, 2005). The approximate toxicity of individual compounds and compounds in combination was determined with a total of 8 doses ranging from 0.002% to 0.25%. […] A control treated with acetone only was run with each series. Tick and flea susceptibility was evaluated using a modification of the disposable pipette method of Barnard et al. (J. Econ. Entomol., 74:466–69, 1981) and Maupin and Piesman (J. Med. Entomol., 31:319–321, 1994).
as §4
as §1, with “Once bottles were completely dry, 10–50 (in some tests 25–50) adult mosquitoes were aspirated into the bottles. Mosquitoes were held in the bottles for 24 h at 23° C. and 85% RH.” left out, “One bottle for each replicate was treated with acetone only and served as a control.” left out

[11] = test system: Xenopsylla cheopis adults; assay: Residual activity, aged treated vials, fleas; assay type: in vivo
Experimental: as §4

[12] = test system: fourth-instar Aedes aegypti larvae; assay: Larval mosquito bioassay; assay type: in vivo; conditions: Aedes aegypti larval mosquitoes; concentration of the 1 ml added to 150 ml water
Experimental: Individual groups of 10 fourth-instar Aedes aegypti larvae were contained in 150 ml of water and exposed to […] of essential oils prepared by 2-fold serial dilutions ranging from 0.06%–5.0% in 1 ml of acetone. A control group of larvae were exposed to 1 ml of acetone only.
It is important to note that larval mosquitoes are tested in their natural environment, i.e., in water. The particular assays used herein involved groups of 10 larval mosquitoes in 150 ml of water. The weight percentages reported for lethal concentration for larval mosquitoes are the weight percentages added to the 150 ml water (as opposed to the final percentage of the tested compound(s) in the 150 ml water). As one of skill in the art will appreciate, test compound(s) added to a volume of water (such as, 150 ml) can be dramatically diluted depending upon the water solubility of the tested compound. […] If the tested compound is an oil (such as, carvacrol, nootkatone, or 13-hydroxy-valencene), it most likely floats on the surface of the water.

[13] = test system: Ixodes scapularis nymphal ticks; assay: Tick repellency bioassay; assay type: in vivo; conditions: listed as Nootkatone (Compound 9)
From the text: One-hundred (100) μl of test compound was pipetted onto a cotton-tipped applicator mounted to the bottom center of a 1 dram glass shell vial using non-toxic modeling clay. A total of 8 concentrations were screened with doses ranging from 0.04–5.0%. Applicators treated with acetone only served as controls. A line was drawn around the perimeter of the vial immediate to the base of the treated cotton portion of the applicator. The area above the line was designated the “repellent zone”. The vial was allowed to air-dry 1 h before a single tick was introduced. Vials were covered with a single piece of mesh and fitted with a hollowed-out plastic cap to cover the opening of the vial; this prevented the tick from escaping but allowed for air exchange. Vials were breathed upon by investigators at 1 min intervals and a hand was placed over the test vials to provide stimuli for ticks to pass into the repellent zone. […] If the tick crossed over and remained in the “repellent zone” for ≧5 sec, the tick was deemed non-repelled by the test compound. Each test was replicated 10 times using a new tick for each test. Repellent activity was determined at 1, 2, 3, and 4 h after treatment. Probit analysis was used to determine repellent efficacy (RD50 and RD95).

[14] = test system: ticks, fleas, formicids and termites; assay: Persistence of biocidal activity in vials treated with 2% solutions (Example 5); assay type: in vivo; conditions: at 11 weeks
Experimental: as §2
Persistence of biocidal activity was determined for nootkatone and valencene-11,12-epoxide by using the vials as treated with the 2% solutions of Example 2. This bioassay employed groups of ticks, fleas, formicids and termites using a method similar to that described in Example 2. […] At 11 weeks, the biocidal activity began to dissipate below the 100% mortality level.

[15] = NE = not effective at concentrations tested
[16] = Aedes aegypti adult mosquitoes, alone, or 1:1 with carvacrol (in parenthesis)
[17] = 1 h after compound applied to applicator
[18] = 4 h after compound applied to applicator
[19] = Ixodes scapularis nymphal ticks, alone, or 1:1 with carvacrol (in parenthesis)

C=C(C)C1CC=C2C=CCC(C)C2(C)C1 (stereo not drawn) [Compound 6, Nootkatene]
LC50 [1]: 0.027 percent concentration, wt:vol
Slope [1]: 3.696
LC90, residual activity ([2]; 1 week after treatment): 0.659 percent concentration, wt:vol
Slope, residual activity ([2]; 1 week after treatment): 1.833
I. scapularis nymphs (72 h), number killed/number tested [3]: 4/5
LC50 [4, 15]: 0.017 percent concentration, wt:vol
Slope [4]: 2.022
I. scapularis adults (4 wk), number killed/number tested [5]: 0/5
Slope, residual activity ([6]; 1 week after treatment): 0.533
residual activity [7]: did not demonstrate any residual activity after one week
LC50 [8]: 0.011 percent concentration, wt:vol
LC90 [8]: 0.06 percent concentration, wt:vol
Slope [8]: 1.763
X. cheopis adults (5 wk), number killed/number tested [9]: 0/5

COc1cc(C(C)C)ccc1C [Compound 3, Methyl carvacrol]
pesticidal activity [10]: no pesticidal activity

CC(C)=CCc1ccc(O)c(=O)cc1C(C)C [Compound 11, Nootkatin]
Slope [1]: 1.327
I. scapularis nymphs (72 h), number killed/number tested [3]: 0/5
I. scapularis adults (4 wk), number killed/number tested [5]: 0/5
X. cheopis adults (5 wk), number killed/number tested [9]: 0/5

C=C(C)[C@@H]1CCC2=CC(=O)C[C@@H](C)[C@]2(C)C1 [Compound 9, Nootkatone]
Slope, residual activity ([11]; 1 week after treatment): 1.633
Slope, residual activity ([11]; 2 weeks after treatment): 2.571
Slope, residual activity ([11]; 4 weeks after treatment): 3.135
LC90 [1]: 0.021 percent concentration, wt:vol
Slope [1]: 2.845
LC50 (15 min) [1, 16]: 0.136 % (wt:vol)
LC50 (24 h) [1, 16]: 0.0075 % (wt:vol)
LC90 (15 min) [1, 16]: 0.453 % (wt:vol)
LC90 (24 h) [1, 16]: 0.021 % (wt:vol)
LC90, residual activity ([2]; 1 week after treatment): 0.018 percent concentration, wt:vol
Slope, residual activity ([2]; 1 week after treatment): 4.336
Slope, residual activity ([2]; 2 weeks after treatment): 4.014
LC90, residual activity ([2]; 2 weeks after treatment, NE = not effective): 0.0088 percent concentration, wt:vol
Slope, residual activity ([2]; 4 weeks after treatment): 4.169
LC50 (1 h) [12]: 6.51 % (wt:vol)
LC50 (24 h) [12]: 1.574 % (wt:vol)
LC90 (1 hr) [12]: 22.644 % (wt:vol)
LC90 (24 h) [12]: 2.757 % (wt:vol)
LC90 [4, 15]: 0.018 percent concentration, wt:vol
Slope [4]: 2.9
Slope (±SEM) ([13]; 1 h): 1.326 (±0.345)
RD50 [13, 17]: 0.101 % (wt:vol)
RD95 [13, 17]: 1.758 % (wt:vol)
Slope (±SEM) ([13]; 4 h): 1.406 (±0.299)
RD50 [13, 18]: 0.173 % (wt:vol)
RD95 [13, 18]: 2.561 % (wt:vol)
Slope, residual activity ([6]; 1 week after treatment): 1.304
LC90, residual activity ([6]; 1 week after treatment): 0.08 percent concentration, wt:vol
Slope, residual activity ([6]; 2 weeks after treatment): 2.649
LC90, residual activity ([6]; 2 weeks after treatment): 0.027 percent concentration, wt:vol
residual activity [7]: considerable biological activity through the four week time period
LC90 [8]: 0.0087 percent concentration, wt:vol
Slope [8]: 3.061
LC50 (1 h) [8, 19]: 0.016 % (wt:vol)
LC50 (24 h) [8, 19]: 0.0033 % (wt:vol)
LC90 (1 hr) [8, 19]: 0.331 % (wt:vol)
LC90 (24 h) [8, 19]: 0.0087 % (wt:vol)
LC50 (1 h) ([8]; Ixodes scapularis nymphal ticks, alone, or 1:1 with carvacrol (in parenthesis), listed as compound 9): 0.016 % (wt:vol)

CC1=CCC2C(C1)C2(C)C (stereo not drawn) [Compound 1, 3-Carene]
pesticidal activity [10]: no pesticidal activity

CC1=CCC(O)(C(C)C)CC1 (stereo not drawn) [Compound 2, Terpinen-4-ol]
pesticidal activity [10]: no pesticidal activity

C[C@@H]1CCC=C2CCC(C3(C)CO3)C[C@]21C (stereo partly drawn) [Compound 13, valencene-11,12-epoxide]
mortality level [14]: < 100%
Slope [1]: 1.581
LC50 [8]: 21.219 percent concentration, wt:vol
LC90 [8]: 3713.114 percent concentration, wt:vol
Slope [8]: 0.571

C=C(C)[C@@H]1CCC2=CCC[C@@H](C)[C@]2(C)C1 [Compound 5, Valencene]
LC50 [1]: 0.015 percent concentration, wt:vol
LC90 [1]: 0.037 percent concentration, wt:vol
Slope [1]: 3.199
I. scapularis nymphs (72 h), number killed/number tested [3]: 0/5
Slope [4]: 6.925
I. scapularis adults (4 wk), number killed/number tested [5]: 0/5
Slope [8]: 0.684
X. cheopis adults (5 wk), number killed/number tested [9]: 0/5
